Results: patent US11096985B2, “Antimicrobial peptides, their variants and uses” (priority 2015, dated 2021)
Where a SMILES comes first, the peptide text is derived from it. [ ]: non-standard residue; d: D form.

Columns and labels:
[1] = system: clinical strains of Staphylococcus aureus; assay: MIC, clinical strains of S. aureus; assay type: cell-based; design: unit: μg/ml; conditions: microdilution, Muller Hinton broth-cation adjusted, 0.02% BSA, 0.2% acetic acid
Method: (§1) Minimum inhibition concentrations (MICs) were determined against Escherichia coli (ATCC 25922), Staphylococcus aureus (ATCC 25923), Klebsiella pneumoniae (ATCC 10031) and Pseudomonas aeruginosa (ATCC 27853). Also clinical strains of E. coli, K. pneumoniae, E. cloacae, P. aeruginosa, Serratia marcescens, Proteus mirabilis, S. pneumoniae, Acinetobacter baumannii, A. johnsonii and S. aureus were used for MICs assays. Additionally, clinical strains of yeast including Candida albicans, C. glabrata, C. parapsilosis and C. quillermondiae were used. The susceptibility of these microorganisms to Chain peptides were determined using micro broth dilution assay. Colonies of the respective microorganism from Muller Hinton (MH) agar plates incubated overnight were suspended in MH broth media and final concentration of microorganism was adjusted to 5.0×10^5 cfu/ml. An aliquot of 10 μl of each Chain peptide, or gentamicin, tetracycline as reference antibiotics were added in differing concentrations along with 90 μl of bacterial suspension to 96 well polypropylene plates and incubated at 37° C. for 20 to 24 hours. Concentrations of Chain peptides and reference antibiotics ranged from 0.125 to 128 μg/ml and the MICs were recorded as the lowest concentration with no visual growth of bacteria. Similarly, antifungal MICs were tested in Potato dextrose broth.
(§2) Clinical strains of yeasts including Candida albicans, C. glabrata, C. parapsilosis and C. quillermondiae were also tested with the 12 Chain peptides. The minimum inhibitory concentration (MICs) varied between these peptides and are presented in Tables 4a, 4b, 4c and 5a, 5b, 5c. Peptides Chain 105, 201 and 308 are broad spectrum antimicrobials with MICs between 0.5-32 μg/ml against all the bacteria and yeasts tested, except Serratia marcescens and Proteus mirabilis, against which the MICs were between 64-128 μg/ml. Peptide Chain 306 has narrow spectrum activity against E.coli at 1 μg/ml and for the rest of the bacterial strains at >32 μg/ml (FIG. 10).

[2] = system: clinical strains of Enterobacter cloacae; assay: MIC, clinical strains of Enterobacter cloacae; assay type: cell-based; design: unit: μg/ml; conditions: microdilution, Muller Hinton broth-cation adjusted, 0.02% BSA, 0.2% acetic acid
Method: as §1, §2

[3] = system: clinical strains of C. parapsilosis; assay: MIC, clinical yeast strains, C. parapsilosis; assay type: cell-based, Candida parapsilosis; design: unit: μg/ml
Summary of the method: (§3)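 Broth microdilution in Mueller Hinton broth, inoculum adjusted to 5.0×10^5 cfu/ml, peptide tested at 0.125 to 128 μg/ml and incubated at 37° C. for 20 to 24 hours. MIC was the lowest concentration with no visible growth. Yeasts were tested in potato dextrose broth.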

[4] = system: clinical strains of Pseudomonas aeruginosa; assay: MIC, clinical strains of P. aeruginosa; assay type: cell-based; design: unit: μg/ml; conditions: microdilution, Muller Hinton broth-cation adjusted, 0.02% BSA, 0.2% acetic acid
Method: as §1, §2

[5] = system: clinical strains of C. quillermondiae; assay: MIC, clinical yeast strains, C. quillermondiae; assay type: cell-based; conditions: C. quillermondiae clinical yeast strain 1
Summary of the method: as §3

[6] = system: clinical strains of Proteus mirabilis; assay: MIC, clinical strains of Proteus mirabilis; assay type: cell-based; design: unit: µg/mL; conditions: microdilution, Muller Hinton broth-cation adjusted, 0.02% BSA, 0.2% acetic acid
Method: as §1, §2

[7] = system: clinical strains of Streptococcus pneumoniae; assay: MIC, clinical strains of Streptococcus pneumoniae; assay type: cell-based; design: unit: µg/mL; conditions: microdilution, Muller Hinton broth-cation adjusted, 0.02% BSA, 0.2% acetic acid
Method: as §1, §2

[8] = system: clinical strains of Candida albicans; assay: MIC, clinical yeast strains, Candida albicans; assay type: cell-based; design: unit: μg/ml
Summary of the method: as §3

[9] = system: clinical strains of Klebsiella pneumoniae; assay: MIC, clinical strains of K. pneumoniae; assay type: cell-based; design: unit: μg/ml; conditions: microdilution, Muller Hinton broth-cation adjusted, 0.02% BSA, 0.2% acetic acid
Method: as §1, §2

[10] = system: clinical strains of C. glabrata; assay: MIC, clinical yeast strains, C. glabrata; assay type: cell-based, Candida glabrata; design: unit: μg/ml
Summary of the method: as §3

[11] = system: clinical strains of Serratia marcescens; assay: MIC, clinical strains of Serratia marcescens; assay type: cell-based; design: unit: µg/mL; conditions: microdilution, Muller Hinton broth-cation adjusted, 0.02% BSA, 0.2% acetic acid
Method: as §1, §2

[12] = system: clinical strains of Escherichia coli; assay: MIC, clinical strains of E. coli; assay type: cell-based; design: unit: μg/ml; conditions: microdilution, Muller Hinton broth-cation adjusted, 0.02% BSA, 0.2% acetic acid
Method: as §1, §2

## CC(C)C[C@@H](NC(=O)[C@H](N)CCCNC(=N)N)C(=O)N[C@H](CCCCN)C(=O)N[C@H](Cc1c[nH]c2ccccc12)C(=O)N[C@H](Cc1ccccc1)C(=O)N[C@H](Cc1c[nH]c2ccccc12)C(=O)N[C@H](CC(C)C)C(=O)N[C@H](Cc1ccccc1)C(=O)N[C@H](CCCNC(=N)N)C(=O)N[C@H](CCCCN)C(=O)N[C@H](CCCNC(=N)N)C(=O)O [Chain307D] (H-[dR][dL][dK][dW][dF][dW][dL][dF][dR][dK][dR]-OH)
[1]; Staphylococcus aureus clinical strain 1
  Minimum inhibitory concentration: 2
[1]; Staphylococcus aureus clinical strain 2
  Minimum inhibitory concentration: 2
[1]; Staphylococcus aureus clinical strain 3
  Minimum inhibitory concentration: 2
[1]; Staphylococcus aureus clinical strain 4
  Minimum inhibitory concentration: 2
[1]; Staphylococcus aureus clinical strain 5
  Minimum inhibitory concentration: 2
[2]; Enterobacter cloacae clinical strain 1
  Minimum inhibitory concentration: 4
[2]; Enterobacter cloacae clinical strain 2
  Minimum inhibitory concentration: 8
[2]; Enterobacter cloacae clinical strain 3
  Minimum inhibitory concentration: 4
[2]; Enterobacter cloacae clinical strain 4
  Minimum inhibitory concentration: 4
[2]; Enterobacter cloacae clinical strain 5
  Minimum inhibitory concentration: 4
[3]; C. parapsilosis clinical yeast strain 1
  Minimum inhibitory concentration: 16
[3]; C. parapsilosis clinical yeast strain 2
  Minimum inhibitory concentration: 8
[3]; C. parapsilosis clinical yeast strain 3
  Minimum inhibitory concentration: 8
[3]; C. parapsilosis clinical yeast strain 4
  Minimum inhibitory concentration: 8
[4]; Pseudomonas aeruginosa clinical strain 1
  Minimum inhibitory concentration: 16
[4]; Pseudomonas aeruginosa clinical strain 2
  Minimum inhibitory concentration: 16
[4]; Pseudomonas aeruginosa clinical strain 3
  Minimum inhibitory concentration: 16
[4]; Pseudomonas aeruginosa clinical strain 4
  Minimum inhibitory concentration: 8
[4]; Pseudomonas aeruginosa clinical strain 5
  Minimum inhibitory concentration: 8
[5]
  Minimum inhibitory concentration: 4
[6]; Proteus mirabilis clinical strain 1
  Minimum inhibitory concentration: >128
[6]; Proteus mirabilis clinical strain 2
  Minimum inhibitory concentration: 128
[6]; Proteus mirabilis clinical strain 3
  Minimum inhibitory concentration: 128
[6]; Proteus mirabilis clinical strain 4
  Minimum inhibitory concentration: >128
[6]; Proteus mirabilis clinical strain 5
  Minimum inhibitory concentration: >128
[7]; Streptococcus pneumoniae clinical strain 1
  Minimum inhibitory concentration: 4
[7]; Streptococcus pneumoniae clinical strain 2
  Minimum inhibitory concentration: 4
[7]; Streptococcus pneumoniae clinical strain 3
  Minimum inhibitory concentration: 4
[7]; Streptococcus pneumoniae clinical strain 4
  Minimum inhibitory concentration: 2
[7]; Streptococcus pneumoniae clinical strain 5
  Minimum inhibitory concentration: 2
[8]; Candida albicans clinical yeast strain 1
  Minimum inhibitory concentration: 16
[8]; Candida albicans clinical yeast strain 2
  Minimum inhibitory concentration: 16
[8]; Candida albicans clinical yeast strain 3
  Minimum inhibitory concentration: 16
[8]; Candida albicans clinical yeast strain 4
  Minimum inhibitory concentration: 16
[8]; Candida albicans clinical yeast strain 5
  Minimum inhibitory concentration: 16
[9]; Klebsiella pneumoniae clinical strain 1
  Minimum inhibitory concentration: 8
[9]; Klebsiella pneumoniae clinical strain 2
  Minimum inhibitory concentration: 8
[9]; Klebsiella pneumoniae clinical strain 3
  Minimum inhibitory concentration: 16
[9]; Klebsiella pneumoniae clinical strain 4
  Minimum inhibitory concentration: 16
[9]; Klebsiella pneumoniae clinical strain 5
  Minimum inhibitory concentration: 4
[10]; C. glabrata clinical yeast strain 1
  Minimum inhibitory concentration: 8
[10]; C. glabrata clinical yeast strain 2
  Minimum inhibitory concentration: 16
[10]; C. glabrata clinical yeast strain 3
  Minimum inhibitory concentration: 8
[10]; C. glabrata clinical yeast strain 4
  Minimum inhibitory concentration: 16
[11]; Serratia marcescens clinical strain 1
  Minimum inhibitory concentration: >128
[11]; Serratia marcescens clinical strain 2
  Minimum inhibitory concentration: >128
[11]; Serratia marcescens clinical strain 3
  Minimum inhibitory concentration: 128
[11]; Serratia marcescens clinical strain 4
  Minimum inhibitory concentration: >128
[11]; Serratia marcescens clinical strain 5
  Minimum inhibitory concentration: >128
[12]; Escherichia coli clinical strain 1
  Minimum inhibitory concentration: 4
[12]; Escherichia coli clinical strain 2
  Minimum inhibitory concentration: 4
[12]; Escherichia coli clinical strain 3
  Minimum inhibitory concentration: 4
[12]; Escherichia coli clinical strain 4
  Minimum inhibitory concentration: 2
[12]; Escherichia coli clinical strain 5
  Minimum inhibitory concentration: 4
